The text below walks through data of patent US6541468B1, “Indolocarbazole derivatives useful for the treatment of neurodegenerative diseases and cancer” (Bayer Corporation, priority 1998, dated 2003).

Where two headings read alike, the source gives them in different places.

In one assay the target is T1, PKA (Bos taurus, UniProt P00517).
T1 construct: The catalytic subunit of bovine heart PKA was obtained commercially from Sigma; purchased Sigma; host or cells: bovine heart
The assay can be described thus: PKA catalytic subunit inhibition assay. The class given is biochemical, bovine. The following applies: footnote a) on the CII value: partial inhibition only. The procedure:
Preparation of cAMP-dependent Kinase: The catalytic subunit of bovine heart PKA was obtained commercially from Sigma.
The catalytic subunit of PKA was assayed in 50 μl 25 mM HEPES, pH 7.0, 10 mM MgCl2, 1 mM EDTA, 1 mM DTT, using 70 ng PKA and 0.1 mg/mL human recombinant tau protein as a substrate.
Enzyme, substrate and inhibitor were preincubated for 5-10 min at 4° C. in assay buffers containing a final concentration of 2% DMSO before initiating the reaction with 0.25 mM γ^2P-ATP. Samples were incubated for 30 min at 37° C. and reactions were terminated with 10% trichloracetic acid/2% sodium pyrophosphate (TCA/PPA), followed by filtration over a glass fiber filtermat (type A) with a cell harvester (Tomtec). The filtermats were washed twice for several hours with TCA/PPA until all background radioactivity was removed. Precipitable counts were quantitated directly on the filtermat with a microbeta scintillation counter system (Wallac-Pharmacia). Inhibitor data were subjected to curve fitting and IC50 values were calculated from these curves using the GraphIt program.

The subject of the next assay is tau hyperphosphorylation. In words: Okadaic acid induced AD-like tau hyperphosphorylation in SY5Y cells. Type of assay: cell-based, human. Particulars: for IC50: Homo sapiens. The procedure:
SKNSH-SY 5Y cells were plated on fibronectin-coated 6 well (30 mm^2) culture dishes (Biocoat®, Collaborative Biomedical Products, Inc.) and grown to confluence in 5 mL of 50% D-MEM/50% F-12 Nutrient Mixture (Ham) supplemented with 15% heat-inactivated bovine serum (JRH Bioscience), 0.1 mM non-essential amino acids solution, 2 mM glutamine and pen/strep/fungizone (GibcoBRL Life Technologies, Inc.). Cell culture medium was changed every 48 hours.
For drug testing, cells were routinely pretreated with inhibitors in 1 mL (30 mm2) for 60 min at concentrations of 30 nM, 100 nM, 300 nM, […]. Compound stocks were all at 10 mM in DMSO and dilutions were made in DMSO. Cells were then treated with 1 μM okadaic acid (ammonium salt; LC Laboratories, dissolved at 1 mM in DMSO) for 90 min. All experiments, including controls, contained a final concentration of between 0.5 and 1% DMSO.
Cells were detached from 30 mm^2 plates and suspended into 1 mL of ice-cold PBS by gentle trituration, transferred into microcentrifuge tubes and sedimented for 12 seconds at 14,000×g. The supernatant was removed and cells were lysed in 250 μl cold homogenization buffer (50 mM MES, pH 5.8, 5 mM sodium pyrophosphate, 50 mM p-nitrophenylphosphate, 1 μM okadaic acid, 2 mM Na-orthovandate, 1 mM EDTA, 1 mM EGTA, 1 mM DTT, 10^ glycerol, 10 μM leupeptin, 1 μM pepstatin, 1 mg/mL aprotinin, 10 μM chymostatin, 1 mM PMSF, and 1% TRITON® x100) and vortexed briefly to aid in lysis. Cell debris was removed by centrifugation at 14,000×g for 5 minutes at 4° C. and cell supernatants were analyzed by anti-ERK2 and anti-tau Western-blotting as described below.
[…] of total cell lysate was run on a 10% tris-glycine polyacrylamide gels (Novex, 1.5 mm×10 well) at 100 volts for 2.5 hors and Western-blotted on nitrocellulose (Novex) overnight at 23 volts or 1.5 hrs at 100V in transfer buffer [Towbin et al. Proc. Natl. Acad. Sci. USA 76, 4350-4354 (1979]) at 4° C. Blots were analyzed for ERK2 and phosphotyrosine immunoreactivity with anti-ERK1+2 (Z033; Zymed Laboratories, Inc.; 1:5,000) and anti-phosphotyrosine (4G10; Upstate Biotechnology Inc.; 1:1,000) mAbs. Blots were also analyzed for phosphorylation-sensitive Tau immuno-reactivity with mAb Tau-1 (Boehringer Mannheim; 1:5,000) and phosphorylation dependent mAb AT8 against FHF-tau (Biosource International; 1:200). Total Tau populations were detected by Tau-1 immunoblotting after treating blots for 16 hrs at 37° C. with 100 units/mL alkaline phosphatase (Gibco BRL) in 5 mL of 50 mM Tris-HCI (pH 8.5), 0.1 mM EDTA. All blots were developed using ECL (enhanced chemiluminescence) Western blotting protocol (Amersham Life Science) with horseradish peroxidase-linked sheep anti-mouse secondary antibody and analyzed on Kodak X-OMAT AR scientific imaging film. Films were scanned into Adobe Photoshop and imported into NIH Image 1.44, where densitometric analysis was performed. Changes in tau phosphorylation were assessed by normalizing densitometrically determined mAb Tau-1 immunoreactivities in cell extracts to Tau-1 reaction after dephosphorylation on the blot. Ratios of Tau-1 reactivity prior to and after dephosphorylation were expressed in % relative to the ratio obtained from control cells not treated with okadaic acid (100%). Proteins isolated form neonatal rat brain were used for comparison in some experiments.
Correlation of potencies of inhibition of PK40 activity in vitro, and of OA-induced ERK2 and tau phosphorylation in SY5Y cells. ERK2 phosphorylation was quantified as the ratio of low mobility/total ERK2, densitometrically determined from ERK2 Western-blots (e.g. of FIG. 1). Tau hyperphosphorylation was expressed as densitometrically measured Tau-1 immunoreactivity normalized to total Tau-1 reactivity after unmasking of the epitope by phosphatase treatment of the blots.
Prevention of tau hyperphosphorylation by the preferred compound CIII (FIG. 1). […]

Setting [1] is: SY5Y, 1 μM okadaic acid, means of triplicate determinations, read-out: Inhibition in SY5Y cells of tau hyperphos. IC50.

Regarding `COC(=O)[C@@]1(O)C[C@H]2C[C@@H]1n1c3ccccc3c3c4c(c5c6ccccc6n2c5c31)C(=O)NC4=O` (relative stereo) [CIII, 9,12-Methano-1H-diindolo[1,2,3-fg:3′,2′,1′-kl]pyrrolo[3,4-I][1,6] benzodiazocine-10-carboxylic acid, 2,3,9,10,11,12-hexahydro-10-hydroxy-1,3-dioxomethyl ester, (9α,10β,12α)], the concentration for half-maximal inhibition (IC50) – broadly, the point on the concentration scale where inhibition reaches its midpoint – was more than 100 µM on PKA and 3.6 µM with tau hyperphosphorylation (setting [1]). For the same compound, the “Effect on normal tau phosphorylation” value in the assay on tau hyperphosphorylation (SY5Y cells not treated by okadaic acid) is “apparently not affected”. For the same compound, the “Fully effective doses for prevention of tau hyperphosphorylation” value with tau hyperphosphorylation (SY5Y cells, 1 μM okadaic acid) was more than 1 µM. For the same compound, the “Prevention of okadaic acid induced tau hyperphosphorylation (FIG. 1)” value in the assay on tau hyperphosphorylation (SY5Y cells, 1 μM okadaic acid, Tau-1 Western blot) was “prevents the tau hyperphosphorylation in a dose dependent manner”.
As to `CNC(=O)[C@]1(O)CC2CC1n1c3ccccc3c3c4c(c5c6ccccc6n2c5c31)C(=O)NC4=O` (stereo partly drawn) [CII, 9,12-Methano-1H-diindolo[1,2,3-fg:3′,2′,1′-kl]pyrrolo[3,4-I][1,6] benzodiazocine-10-carboxamide, 2,3,9,10,11,12-hexahydro-10-hydroxy-N-methyl-1,3-dioxo-(9α,10β,12α)], the IC50 came out at 0.65 µM against PKA; 0.58 µM with tau hyperphosphorylation (setting [1]); 0.1 µM in the assay with tau hyperphosphorylation (SY5Y cells, okadaic acid, read-out: IC50 for prevention of tau hyperphosphorylation in SY5Y cells).
